Assay [1] deals with T1, Protein kinase C zeta type (Homo sapiens) (UniProt Q05513).
T1 sequence (whole entry): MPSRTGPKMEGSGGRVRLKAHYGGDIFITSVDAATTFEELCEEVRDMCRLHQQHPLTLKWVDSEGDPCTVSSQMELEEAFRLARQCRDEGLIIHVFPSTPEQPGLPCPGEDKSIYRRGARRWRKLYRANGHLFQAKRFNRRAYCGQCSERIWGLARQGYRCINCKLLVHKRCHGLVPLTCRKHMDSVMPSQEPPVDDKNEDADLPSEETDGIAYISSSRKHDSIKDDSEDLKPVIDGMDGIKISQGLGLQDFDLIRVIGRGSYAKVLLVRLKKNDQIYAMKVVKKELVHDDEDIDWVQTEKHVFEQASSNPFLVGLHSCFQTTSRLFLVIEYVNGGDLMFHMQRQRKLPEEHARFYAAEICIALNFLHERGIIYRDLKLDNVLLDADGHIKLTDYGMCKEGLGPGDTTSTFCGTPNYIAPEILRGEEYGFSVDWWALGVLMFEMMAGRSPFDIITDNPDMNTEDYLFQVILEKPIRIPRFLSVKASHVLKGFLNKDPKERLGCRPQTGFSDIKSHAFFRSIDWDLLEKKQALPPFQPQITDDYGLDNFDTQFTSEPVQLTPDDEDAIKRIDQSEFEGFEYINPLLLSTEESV
The assay is described as follows: Selectivity interaction (Kinase panel (Z-LYTE Assay)) EUB0001632a PRKCZ. Conditions: at 10 µM.

The target of assay [2] is T2, cAMP-dependent protein kinase catalytic subunit PRKX (Homo sapiens) (UniProt P51817).
T2 sequence (whole entry): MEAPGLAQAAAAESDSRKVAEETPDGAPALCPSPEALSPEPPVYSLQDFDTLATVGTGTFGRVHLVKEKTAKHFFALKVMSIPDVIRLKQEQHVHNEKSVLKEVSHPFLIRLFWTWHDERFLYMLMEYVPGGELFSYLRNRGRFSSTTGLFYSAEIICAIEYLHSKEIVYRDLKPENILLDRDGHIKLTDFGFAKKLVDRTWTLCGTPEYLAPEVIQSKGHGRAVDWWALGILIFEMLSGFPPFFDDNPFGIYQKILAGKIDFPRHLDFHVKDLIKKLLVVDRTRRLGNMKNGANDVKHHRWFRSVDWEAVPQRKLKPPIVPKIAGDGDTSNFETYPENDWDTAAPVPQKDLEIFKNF
The assay is described as follows: Selectivity interaction (KinomeScan (DiscoverX)) EUB0000229b PRKX. Conditions: at 10 µM.

Assay [3] has as its target Serine/threonine-protein kinase SIK3 (Homo sapiens) (UniProt Q9Y2K2). Nature of the assay: Selectivity interaction (KinomeScan (DiscoverX)) EUB0000229b SIK3. Conditions: at 10 µM.
Assay [4] is described as follows: Selectivity interaction (ActivX KiNativ screen (kinase selectivity in THP-1 cell lysates)) EUB0000639a STLK6. Conditions: Selectivity number of off-targets 0; Selectivity number of targets 283; Source Knowledge https://pubmed.ncbi.nlm.nih.gov/28498658/; at 0.04 µM.
In assay [5] the target is Dual specificity mitogen-activated protein kinase kinase 2 (Homo sapiens) (UniProt P36507).
Assay [6] addresses T3, Serine/threonine-protein kinase Nek3 (Homo sapiens) (UniProt P51956).
T3 sequence (whole entry): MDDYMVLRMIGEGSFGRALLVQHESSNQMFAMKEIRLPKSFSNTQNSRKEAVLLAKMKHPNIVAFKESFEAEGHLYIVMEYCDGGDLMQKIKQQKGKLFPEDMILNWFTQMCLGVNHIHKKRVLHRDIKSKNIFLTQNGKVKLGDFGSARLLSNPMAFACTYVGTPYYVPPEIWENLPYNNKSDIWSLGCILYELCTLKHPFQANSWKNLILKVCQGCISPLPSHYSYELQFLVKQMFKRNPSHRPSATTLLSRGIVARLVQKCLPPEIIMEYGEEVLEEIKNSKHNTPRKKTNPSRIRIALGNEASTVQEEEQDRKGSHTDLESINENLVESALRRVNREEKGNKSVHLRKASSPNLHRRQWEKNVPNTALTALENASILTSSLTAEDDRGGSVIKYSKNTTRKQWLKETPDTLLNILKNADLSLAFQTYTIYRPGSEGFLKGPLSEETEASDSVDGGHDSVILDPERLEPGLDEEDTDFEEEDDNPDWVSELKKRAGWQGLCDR
Nature of the assay: Selectivity interaction (KinomeScan (DiscoverX)) EUB0000695a NEK3. Conditions: at 100 nM.

Assay [7] has as its target Serine/threonine-protein kinase B-raf (Homo sapiens) (UniProt P15056). The assay is described as follows: (§1) Selectivity interaction (ProQinase) EUB0000171b BRAF.
Assay [8] concerns Serine/threonine-protein kinase B-raf (Homo sapiens), P15056 [V600E]. The assay is described as §1.
Assay [9] has as its target T4, Serine/threonine-protein kinase D3 (Homo sapiens) (UniProt O94806).
T4 sequence (whole entry): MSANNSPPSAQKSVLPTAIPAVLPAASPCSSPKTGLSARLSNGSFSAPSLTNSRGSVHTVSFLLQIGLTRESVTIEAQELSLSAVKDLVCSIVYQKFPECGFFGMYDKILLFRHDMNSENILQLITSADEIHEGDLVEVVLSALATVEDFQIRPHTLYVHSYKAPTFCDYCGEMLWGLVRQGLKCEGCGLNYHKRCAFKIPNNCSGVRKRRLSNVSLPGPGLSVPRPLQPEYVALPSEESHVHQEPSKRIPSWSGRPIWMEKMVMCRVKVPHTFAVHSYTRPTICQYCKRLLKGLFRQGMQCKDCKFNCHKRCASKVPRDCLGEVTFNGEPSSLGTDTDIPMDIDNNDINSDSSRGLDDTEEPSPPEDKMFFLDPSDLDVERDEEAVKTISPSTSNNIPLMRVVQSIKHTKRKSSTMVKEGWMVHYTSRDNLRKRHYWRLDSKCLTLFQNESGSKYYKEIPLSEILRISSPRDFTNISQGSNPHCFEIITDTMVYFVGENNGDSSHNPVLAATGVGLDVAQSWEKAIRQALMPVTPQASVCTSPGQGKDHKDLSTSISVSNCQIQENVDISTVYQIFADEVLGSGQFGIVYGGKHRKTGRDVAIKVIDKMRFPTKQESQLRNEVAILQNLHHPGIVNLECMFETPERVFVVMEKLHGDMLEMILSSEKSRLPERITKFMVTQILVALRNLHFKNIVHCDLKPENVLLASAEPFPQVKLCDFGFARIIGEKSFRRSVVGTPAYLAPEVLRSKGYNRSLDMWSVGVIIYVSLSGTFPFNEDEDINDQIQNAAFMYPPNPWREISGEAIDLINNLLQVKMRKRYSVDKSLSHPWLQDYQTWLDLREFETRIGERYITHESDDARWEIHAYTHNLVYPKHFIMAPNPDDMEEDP
The assay is described as follows: Selectivity interaction (ProQinase) EUB0000171b PRKD3.

The target in assay [10] is Proto-oncogene tyrosine-protein kinase ROS (Homo sapiens) (UniProt P08922). The assay is described as follows: Selectivity interaction (KinomeScan (DiscoverX)) EUB0000045b ROS1.

Each structure is given as a SMILES string.

Proto-oncogene tyrosine-protein kinase ROS (Homo sapiens), sequence (P08922 whole entry): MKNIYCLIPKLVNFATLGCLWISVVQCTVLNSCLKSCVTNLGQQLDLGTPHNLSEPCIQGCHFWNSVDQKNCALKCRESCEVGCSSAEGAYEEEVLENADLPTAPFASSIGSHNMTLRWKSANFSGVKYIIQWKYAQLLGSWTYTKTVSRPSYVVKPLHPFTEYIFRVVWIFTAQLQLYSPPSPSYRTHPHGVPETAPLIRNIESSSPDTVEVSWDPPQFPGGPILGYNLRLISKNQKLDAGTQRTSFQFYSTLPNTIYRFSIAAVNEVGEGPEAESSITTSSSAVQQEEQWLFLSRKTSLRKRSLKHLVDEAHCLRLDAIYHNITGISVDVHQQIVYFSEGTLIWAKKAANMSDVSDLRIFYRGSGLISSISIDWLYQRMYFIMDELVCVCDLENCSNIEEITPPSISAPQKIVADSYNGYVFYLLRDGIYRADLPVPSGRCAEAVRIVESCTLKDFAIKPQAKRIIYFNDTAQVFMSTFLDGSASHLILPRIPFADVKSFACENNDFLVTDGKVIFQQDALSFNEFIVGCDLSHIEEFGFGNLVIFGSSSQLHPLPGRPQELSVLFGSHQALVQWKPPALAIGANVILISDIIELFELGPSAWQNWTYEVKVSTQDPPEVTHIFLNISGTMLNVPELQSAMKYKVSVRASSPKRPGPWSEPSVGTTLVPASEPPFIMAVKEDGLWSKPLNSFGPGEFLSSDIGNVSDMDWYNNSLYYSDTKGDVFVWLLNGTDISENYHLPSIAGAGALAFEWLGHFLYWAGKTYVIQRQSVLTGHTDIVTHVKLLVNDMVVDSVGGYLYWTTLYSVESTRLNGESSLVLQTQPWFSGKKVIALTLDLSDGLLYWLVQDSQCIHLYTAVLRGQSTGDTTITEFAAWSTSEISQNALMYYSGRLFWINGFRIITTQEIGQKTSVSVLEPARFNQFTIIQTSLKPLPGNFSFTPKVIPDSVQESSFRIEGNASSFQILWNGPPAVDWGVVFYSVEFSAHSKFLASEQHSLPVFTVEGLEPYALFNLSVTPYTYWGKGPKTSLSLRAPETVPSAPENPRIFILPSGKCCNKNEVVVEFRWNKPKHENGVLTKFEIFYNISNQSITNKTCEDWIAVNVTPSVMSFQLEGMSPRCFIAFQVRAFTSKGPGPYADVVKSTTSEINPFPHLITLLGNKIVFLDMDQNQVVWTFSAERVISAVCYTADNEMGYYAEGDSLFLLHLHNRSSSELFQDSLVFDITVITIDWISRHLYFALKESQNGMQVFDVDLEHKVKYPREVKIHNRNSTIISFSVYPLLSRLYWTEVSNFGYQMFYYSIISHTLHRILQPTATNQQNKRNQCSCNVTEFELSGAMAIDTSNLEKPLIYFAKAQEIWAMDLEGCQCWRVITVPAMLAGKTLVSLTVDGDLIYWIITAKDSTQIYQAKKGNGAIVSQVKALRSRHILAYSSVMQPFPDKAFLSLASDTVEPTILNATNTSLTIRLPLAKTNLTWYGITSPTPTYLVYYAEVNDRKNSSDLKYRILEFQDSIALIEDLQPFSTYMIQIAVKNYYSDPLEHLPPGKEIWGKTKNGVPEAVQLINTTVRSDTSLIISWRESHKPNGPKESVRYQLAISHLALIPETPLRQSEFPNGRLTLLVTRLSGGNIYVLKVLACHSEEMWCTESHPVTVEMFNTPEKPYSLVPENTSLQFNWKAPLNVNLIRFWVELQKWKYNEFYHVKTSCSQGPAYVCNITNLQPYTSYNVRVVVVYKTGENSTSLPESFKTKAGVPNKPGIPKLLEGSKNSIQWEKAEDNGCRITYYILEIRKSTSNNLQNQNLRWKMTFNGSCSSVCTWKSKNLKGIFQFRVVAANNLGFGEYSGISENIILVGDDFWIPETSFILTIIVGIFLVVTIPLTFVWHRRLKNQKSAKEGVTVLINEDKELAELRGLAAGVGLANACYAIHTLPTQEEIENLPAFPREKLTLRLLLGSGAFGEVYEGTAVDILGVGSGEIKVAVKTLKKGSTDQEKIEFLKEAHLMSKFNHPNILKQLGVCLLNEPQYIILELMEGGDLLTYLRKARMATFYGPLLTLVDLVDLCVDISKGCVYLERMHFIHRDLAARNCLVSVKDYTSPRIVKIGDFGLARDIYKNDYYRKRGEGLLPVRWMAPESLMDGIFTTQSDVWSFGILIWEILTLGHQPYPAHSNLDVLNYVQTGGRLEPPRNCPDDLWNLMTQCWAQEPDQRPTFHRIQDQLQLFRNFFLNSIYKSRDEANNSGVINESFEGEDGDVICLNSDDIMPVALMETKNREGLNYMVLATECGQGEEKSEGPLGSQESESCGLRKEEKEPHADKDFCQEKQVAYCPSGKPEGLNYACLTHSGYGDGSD
Serine/threonine-protein kinase B-raf (Homo sapiens), sequence (P15056 whole entry): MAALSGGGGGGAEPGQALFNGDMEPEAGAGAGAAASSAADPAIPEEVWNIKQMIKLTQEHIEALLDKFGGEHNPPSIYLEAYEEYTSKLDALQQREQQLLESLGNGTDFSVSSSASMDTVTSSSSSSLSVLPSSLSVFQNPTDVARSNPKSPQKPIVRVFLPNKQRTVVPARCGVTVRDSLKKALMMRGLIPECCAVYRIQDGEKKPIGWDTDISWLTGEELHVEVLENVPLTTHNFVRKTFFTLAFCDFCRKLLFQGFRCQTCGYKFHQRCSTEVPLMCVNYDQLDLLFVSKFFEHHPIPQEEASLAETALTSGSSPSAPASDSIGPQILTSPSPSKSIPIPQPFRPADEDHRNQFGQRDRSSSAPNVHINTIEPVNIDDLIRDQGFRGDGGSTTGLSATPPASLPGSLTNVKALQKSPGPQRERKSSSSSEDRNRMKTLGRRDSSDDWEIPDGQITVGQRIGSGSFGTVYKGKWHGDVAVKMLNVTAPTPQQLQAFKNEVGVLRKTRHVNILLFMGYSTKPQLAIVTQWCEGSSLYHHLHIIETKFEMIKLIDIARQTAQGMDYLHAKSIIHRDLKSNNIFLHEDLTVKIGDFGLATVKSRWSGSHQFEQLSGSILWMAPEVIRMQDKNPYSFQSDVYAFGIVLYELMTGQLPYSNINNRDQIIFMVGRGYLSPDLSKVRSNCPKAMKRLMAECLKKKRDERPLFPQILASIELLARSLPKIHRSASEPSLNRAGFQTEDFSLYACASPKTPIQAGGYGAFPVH
Serine/threonine-protein kinase B-raf (Homo sapiens), P15056 [V600E], sequence (P15056 whole entry V600E): as the sequence (P15056 whole entry) above, with V600E counted along it
Dual specificity mitogen-activated protein kinase kinase 2 (Homo sapiens), sequence (P36507 whole entry): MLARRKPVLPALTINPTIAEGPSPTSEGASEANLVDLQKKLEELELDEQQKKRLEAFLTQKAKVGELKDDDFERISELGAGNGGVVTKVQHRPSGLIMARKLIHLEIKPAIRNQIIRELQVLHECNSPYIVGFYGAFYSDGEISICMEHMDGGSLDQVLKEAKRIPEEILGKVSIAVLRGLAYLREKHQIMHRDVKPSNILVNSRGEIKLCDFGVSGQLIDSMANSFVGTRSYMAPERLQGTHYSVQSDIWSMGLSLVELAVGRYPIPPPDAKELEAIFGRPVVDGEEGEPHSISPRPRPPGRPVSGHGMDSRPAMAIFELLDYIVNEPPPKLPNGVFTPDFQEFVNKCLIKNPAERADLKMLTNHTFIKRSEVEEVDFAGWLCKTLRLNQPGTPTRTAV
Serine/threonine-protein kinase SIK3 (Homo sapiens), sequence (Q9Y2K2 whole entry, looked up): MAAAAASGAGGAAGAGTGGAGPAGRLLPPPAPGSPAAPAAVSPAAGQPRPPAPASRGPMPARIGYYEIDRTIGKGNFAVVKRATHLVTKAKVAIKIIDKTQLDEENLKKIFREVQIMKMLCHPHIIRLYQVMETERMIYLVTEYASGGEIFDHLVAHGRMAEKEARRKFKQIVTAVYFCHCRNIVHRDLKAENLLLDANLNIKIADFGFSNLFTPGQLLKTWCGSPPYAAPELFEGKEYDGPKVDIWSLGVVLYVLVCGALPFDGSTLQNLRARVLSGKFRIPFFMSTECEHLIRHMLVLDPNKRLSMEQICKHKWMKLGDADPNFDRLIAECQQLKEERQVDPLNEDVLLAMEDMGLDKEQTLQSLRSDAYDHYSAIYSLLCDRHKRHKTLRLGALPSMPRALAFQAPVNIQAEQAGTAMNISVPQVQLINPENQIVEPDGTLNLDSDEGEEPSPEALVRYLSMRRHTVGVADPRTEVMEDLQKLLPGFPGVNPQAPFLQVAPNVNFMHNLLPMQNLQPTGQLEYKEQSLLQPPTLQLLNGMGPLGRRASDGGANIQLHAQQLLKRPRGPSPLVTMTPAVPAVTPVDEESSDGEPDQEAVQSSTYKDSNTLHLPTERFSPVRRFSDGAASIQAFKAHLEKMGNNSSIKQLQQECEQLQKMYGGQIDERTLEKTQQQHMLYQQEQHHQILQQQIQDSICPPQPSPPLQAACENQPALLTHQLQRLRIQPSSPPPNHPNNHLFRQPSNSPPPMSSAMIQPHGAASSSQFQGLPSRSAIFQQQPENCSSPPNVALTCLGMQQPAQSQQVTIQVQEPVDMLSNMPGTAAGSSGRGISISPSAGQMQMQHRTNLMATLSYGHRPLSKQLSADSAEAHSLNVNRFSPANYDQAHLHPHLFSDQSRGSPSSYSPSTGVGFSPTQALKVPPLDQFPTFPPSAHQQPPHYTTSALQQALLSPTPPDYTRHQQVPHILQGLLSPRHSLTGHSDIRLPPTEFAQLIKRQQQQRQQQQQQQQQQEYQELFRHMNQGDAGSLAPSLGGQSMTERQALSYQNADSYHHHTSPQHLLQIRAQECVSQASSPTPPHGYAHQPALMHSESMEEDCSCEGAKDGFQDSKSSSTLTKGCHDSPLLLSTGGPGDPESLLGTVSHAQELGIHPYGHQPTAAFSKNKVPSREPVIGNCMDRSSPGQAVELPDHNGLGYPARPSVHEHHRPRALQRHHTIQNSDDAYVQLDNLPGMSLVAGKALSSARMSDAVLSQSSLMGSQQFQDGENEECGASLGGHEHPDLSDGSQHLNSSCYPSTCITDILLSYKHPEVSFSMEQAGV

In [1], `Cn1cc(-n2cnc3c(NCc4nc5cc(Cl)c(Cl)cc5[nH]4)nc(N4CCOCC4)nc32)cn1` gave a % of control of 6.71%.

Take `COc1cc(N(C)c2ccnc3ccc(C(F)(F)F)cc23)cc(OC)c1OC`: the % binding was found to be 72% in assay [2] and 74% in assay [3].

Take `CC[C@@H]1[C@H](F)C(=O)N[C@@H]1COc1nccc2cc(C(N)=O)c(OC)cc12` [ZIMLOVISERTIB]: in [4], the “% of inhibition” value came to 16%.

In [5], `CC(=O)Nc1cccc(-n2c(=O)n(C3CC3)c(=O)c3c(Nc4ccc(I)cc4F)n(C)c(=O)c(C)c32)c1` had a Kdapp of 9 nM.

In assay [6], `Cc1cc(F)c(C(=O)Nc2cccc(-c3nncn3C(C)C)n2)cc1-n1cnc(C2CC2)c1` showed a % of control of 84%.

In the case of `C=CC(=O)Nc1cccc(C(=O)Nc2ccc(Nc3cc(-c4[nH]c(SC)nc4C)ccn3)cc2)c1`, the % of control in [7] (at 1 µM) is 96%; in assay [7] (at 5 µM), 82%; in assay [8] (at 1 µM), 110%; in [8] (at 5 µM), 113%; in [9] (at 1 µM) it was 44%; in assay [9] (at 5 µM), 15%.

In the case of `C=CC(=O)Nc1cc(-n2c(=O)ccc3cnc4ccc(-c5ccc(NS(C)(=O)=O)cc5)cc4c32)ccc1C`, the % of control was 81% in assay [10] (at 1 µM) and 83% in assay [10] (at 10 µM).

These data come from ChEMBL document CHEMBL5465560, “Selectivity Literature for EUbOPEN Chemogenomic Library” (2024).
